≈ marks a conversion by molar mass, not a printed value. Where “and” joins values, the source holds several entries; their conditions need not be identical. Equal values may be shown once.
Experiments:
Candida albicans = assay: Neutropenic mouse model of disseminated candidosis; assay type: in vivo
Method: Mice were rendered neutropenic by injection with cyclophosphamide monohydrate (Fluka, BioChemika, Sigma-Aldrich, Switzerland) intraperitoneally 2×100 mg/kg of body weight 1 day before infection.

[1] = tested on: mice (C57B1/6xDBA/2)F1 B6D2F1; details: for LD50 / MTD: single injection into tail vein, probit analysis
Summary of the method: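 Male B6D2F1 mice, 20-22 g, given one tail-vein injection of antibiotic suspended with sodium deoxycholate in phosphate buffer, within 1-1.5 h of preparation. Doses spanned 0% to 100% lethality with at least 3 intermediate doses, in randomized groups of 6 mice.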

[2] = tested on: Cryptococcus humicolus ATCC 9949; assay: Antifungal susceptibility study (1), broth microdilution MIC; assay type: cell-based; details: lowest concentration preventing any visible growth, read at 48 hours, 25° C., RPMI 1640 pH 7.0
Summary of the method: (§1)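 Broth microdilution in test medium at pH 7.0 with two-fold compound dilutions (DMSO stocks diluted 50-fold into medium), inoculated with freshly grown yeast cultures. Plates were incubated without agitation at 35° C. for C. albicans or 25° C. for C. humicolus. MIC was taken as the concentration with no visible growth, read at 48 hours.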

[3] = tested on: Candida albicans ATCC 14053; assay: as above; assay type: cell-based; details: lowest concentration preventing any visible growth, read at 48 hours, 35° C., RPMI 1640 pH 7.0
Summary of the method: as §1

[4] = tested on: Candida albicans ATCC 10231; assay: Antifungal susceptibility study (2), MIC50 by OD490 growth; assay type: cell-based; details: 50% growth inhibition from regression curve, M19 medium without NaCl, 30° C.
Method: The anti-fungal activity of several of the nystatin derivatives was further investigated. […] The anti-fungal activity of a number of the nystatin derivatives was therefore determined in a method which is designed to be more sensitive.
The test organism used for the further testing of polyene macrolide bioactivity was Candida albicans ATCC 10231, grown in 120 μl of standard M19 medium without NaCl (with an inoculum of 1000 cfu per well) and 30 μl of diluted polyene macrolide samples. The antibiotics were diluted in MeOH in series ensuring a spectrum of concentrations which yielded results ranging from complete growth inhibition to no inhibition of the test organism. The test organism cultures with antibiotic dilutions were incubated in 96-well microtiter plates at 30° C. without shaking, and growth was measured as OD490 after 12, 14 and 16 hours on a SpectraMax Plus microtiter plate reader. OD was plotted against antibiotic concentration, and MIC50 was estimated from the regression curve at 50% growth inhibition.

[5] = tested on: Aspergillus niger ATCC 16404; assay: Antifungal susceptibility study (1), broth microdilution MIC; assay type: cell-based; details: lowest concentration preventing any visible growth, read at 48 hours, 35° C., RPMI 1640 pH 7.0
Summary of the method: (§2)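 Broth microdilution was run at pH 7.0 with compounds diluted from DMSO solutions and mixed 1:1 with conidial inoculum. Spore suspensions were adjusted to OD530 0.09-0.11 for A. niger or 0.15-0.17 for F. oxysporum, then diluted 1:50. Plates were incubated at 35° C without agitation, and MIC was read at 48 hours as absence of visible growth.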

[6] = tested on: Fusarium oxysporum VKM F-140; assay: as above; assay type: cell-based; details: lowest concentration preventing any visible growth, read at 48 hours, 35° C., RPMI 1640 pH 7.0
Summary of the method: as §2

erythrocytes = assay: In vitro toxicity study, haemolysis (Tables 11 and 12); assay type: cell-based, horse
Method: The toxicity of various nystatin derivatives was tested at 2 and 5 μg/mL and at 25 μM.
Compounds were dissolved in DMSO at 5 mg/mL and 0.1 mL samples with different concentrations were prepared in DMSO. The samples were mixed with 0.9 mL PBS buffer containing 2.5% horse blood (PBS-HB; kept on ice) and incubated at 37° C. for 30 min without agitation.
Cells were pelleted by centrifugation at 5000 rpm for 5 min and haemolysis was evaluated by measuring OD545. 100% haemolysis was defined as the OD545 value obtained from a suspension of 2.5% horse blood in distilled water.

[7] = tested on: yeasts and filamentous fungi (moulds); assay: Antifungal susceptibility study (1), overall comparison across the test organisms; assay type: cell-based; details: Table 5 MICs
Method: The organisms used for susceptibility testing were: Candida albicans ATCC 14053, Cryptococcus humicolus ATCC 9949, Aspergillus niger ATCC 16404 and Fusarium oxysporum VKM F-140 (=CMI, IMI 90473). Organisms were stored on potato dextrose agar […] 50% glycerol solution at -70° C. For short-term storage, stock cultures were stored on agar […] 4° C. The cultures of yeasts were sub-cultured onto Sabouraud dextrose (SAB) agar and incubated for 24 hours at 35° C. (Candida albicans) or for 48 hours at 25° C. (Cryptococcus humicolus) to obtain a freshly grown pure culture. The cultures of moulds were sub-cultured onto potato dextrose agar and incubated for 7 days at 35° C. […] (Fusarium oxysporum) to ensure maximum sporulation. Sterile 96-well flat-bottomed microtitration plates were used for testing. 100 μl of diluted inocula were dispensed into each microdilution well containing 100 μl of the double dilutions of compounds. Drug-free and yeast/mould-free controls were included. Microdilution trays were incubated at 35° C. (Candida albicans and moulds) or 25° C. (Cryptococcus humicolus) without agitation and observed for the presence or absence of visible growth. […] Minimal inhibitory concentrations (MICs) were read at 48 hours.

| Structure (SMILES) | activity compared with amphotericin B (Candida albicans) | acute toxicity, times lower than amphotericin B [1] [times] | LD50 [1] [mg/kg] | MTD [1] [mg/kg] | MIC Cryptococcus humicolus ATCC 9949 [2] [µg/mL] | MIC Candida albicans ATCC 14053 [3] [µg/mL] | MIC50 [4] [µg/mL] | MIC Aspergillus niger ATCC 16404 [5] [µg/mL] | MIC Fusarium oxysporum VKM F-140 [6] [µg/mL] | Haemolysis of erythrocytes, Mean ± SE (erythrocytes; 5 μg/mL (Table 11)) [%] | Haemolysis of erythrocytes (erythrocytes; 5 μg/mL, individual blood samples # 1-3 (Table 11)) | anti-fungal activity compared with Amphotericin B and S44HP [7] |
| --- | --- | --- | --- | --- | --- | --- | --- | --- | --- | --- | --- | --- |
| CC1C=CC=CC=CC=CC=CC=CC=CC(OC2OC(C)C(O)C(N)C2O)CC2OC(O)(CC(O)CCCC(O)CC(O)CC(O)CC(=O)OC(C)C(C)C1O)CC(O)C2C.NC(CCC(=O)O)C(=O)O (stereo not shown) [Compound 25] | less active than amphotericin B | ~20 | 50.8 | 42.8 |  |  |  |  |  |  |  |  |
| CC1C=CC=CC=CC=CC=CC=CC=CC(OC2OC(C)C(O)C(N)C2O)CC2OC(O)(CC(O)CC(O)CC(O)CC(O)CC(O)CC(=O)OC(C)C(C)C1O)CC(O)C2C.NC(CCC(=O)O)C(=O)O (stereo not shown) [Compound 26] | less active than amphotericin B | ~20 | 50.0 | 43.1 |  |  |  |  |  |  |  |  |
| CC1C=CC=CC=CC=CC=CC=CC=CC(OC2OC(C)C(O)C(N)C2O)CC2OC(O)(CC(O)C(O)CCC(O)CC(O)CC(O)CC(=O)OC(C)C(C)C1O)CC(O)C2C(=O)NCCCO (stereo not shown) [Compound 12] |  |  |  |  | 1 (≈ 1.02 µM) | 1 (≈ 1.02 µM) | 0.14 (≈ 0.143 µM) | 2 (≈ 2.04 µM) | 2 (≈ 2.04 µM) | 4.4 ± 0.3 | 5% and 4.3% and 4.0% | comparable anti-fungal activity to Amphotericin B and S44HP |
